Source: EP0850950A1, “PEPTIDE DERIVATIVES” (DAIICHI PHARMACEUTICAL CO., LTD., priority 1995, dated 1998)

Test system: Mice
Test: analgesic activity by pressure stimulation method (tail base)
Format: in vivo
Conditions: percent of maximum possible effect, maximum stimulating pressure 100 mmHg; for MPE(%) 1 mg/kg s.c. (%): 1 mg/kg subcutaneous administration (skin in the backs); for MPE(%) 10 mg/kg p.o.(%): 10 mg/kg oral administration
Procedure: The analgesic activities of the peptide derivatives of the present invention were evaluated by pressure stimulation method. Mice were subjected to pressure stimulation at the bases of their tails at a rate of 10 mmHg/second. […] For the experiments, mice that were preliminarily determined to respond to a pressure of 40-50 mmHg were used. The maximum stimulating pressure was 100 mmHg. Analgesic activity was calculated as percent of maximum possible effect (% of MPE) according to the following equation: % of MPE =(Pt - Po)/(Pc - Po)× 100 [formula] wherein Po is the pain reaction threshold before the administration of a drug; Pt is the pain reaction threshold "t" minutes after the administration of the drug; and Pc is the maximum stimulating pressure. The results of analgesic activity obtained from subcutaneous administration (skin in the backs) and oral administration are shown in Table 1.

Compound | MPE(%) 1 mg/kg s.c. (%) | MPE(%) 10 mg/kg p.o.(%)
Cc1cc(O)cc(C)c1C[C@H](NC(=N)N)C(=O)N[C@H](CCCNC(=N)N)C(=O)N[C@@H](Cc1ccccc1)C(=O)N(C)CCC(=O)O [Example 2, H2NC(NH)-DMT-D-Arg-Phe-MeβAla-OH·diacetate] | 93.47% | 22.78%
CN(CCC(=O)O)C(=O)[C@H](Cc1ccccc1)NC(=O)[C@@H](CCCNC(=N)N)NC(=O)[C@H](Cc1ccc(O)c(O)c1)NC(=N)N [Example 4, H2NC(NH)-DOPA-D-Arg-Phe-MeβAla-OH·diacetate] | 70.85% | 18.11%
CN(CCC(=O)O)C(=O)[C@H](Cc1ccccc1)NC(=O)[C@@H](CCNC(=N)N)NC(=O)[C@H](Cc1ccc(O)cc1)NC(=N)N [Example 10, H2NC(NH)-Tyr-(R)-AGBA-Phe-MeβAla-OH·diacetate] | 42.78% | 10.62%
CC(=N)NCCC[C@@H](NC(=O)[C@H](Cc1ccc(O)cc1)NC(=N)N)C(=O)N[C@@H](Cc1ccccc1)C(=O)N(C)CCC(=O)O [Example 17, H2NC(NH)-Tyr-(R)-IEPE-Phe-MeβAla-OH·diacetate] | 100% | 88.34%
CC(=N)N[C@@H](Cc1ccc(O)cc1)C(=O)N[C@H](CCCCN)C(=O)N[C@@H](Cc1ccccc1)C(=O)N(C)CCC(=O)O [Example 19, H3C-C(NH)-Tyr-D-Lys-Phe-MeβAla-OH·diacetate] | 87.11% | 82.29%
CN(CCC(=O)O)C(=O)[C@H](Cc1ccc(O)cc1)NC(=O)[C@@H](CCCNC(=N)N)NC(=O)[C@H](Cc1ccc(O)cc1)NC(=N)N [Example 25, H2NC(NH)-Tyr-D-Arg-Tyr-MeβAla-OH·diacetate] | 22.55% | 10.96%
CN(CCC(=O)O)C(=O)[C@H](CCc1ccccc1)NC(=O)[C@@H](CCCNC(=N)N)NC(=O)[C@H](Cc1ccc(O)cc1)NC(=N)N [Example 26, N-H2NC(NH)-Tyr-D-Arg-APBA-MeβAla-OH·diacetate] | 32.83% | 14.44%
CN(CCC(=O)O)C(=O)[C@H](CC1CCCCC1)NC(=O)[C@@H](CCCNC(=N)N)NC(=O)[C@H](Cc1ccc(O)cc1)NC(=N)N [Example 27, H2NC(NH)-Tyr-D-Arg-Cha-MeβAla-OH·diacetate] | 52.14% | 33.15%
CC(=N)N[C@@H](Cc1ccc(O)cc1)C(=O)N[C@H](CC[S+](C)[O-])C(=O)N[C@@H](Cc1ccccc1)C(=O)N(C)CCC(=O)O (stereo partly drawn) [Example 31, H3C-C(NH)-Tyr-D-AMSB-Phe-MeβAla-OH·acetate] | 100% | 96.18%
CC(=N)NC[C@@H](NC(=O)[C@H](Cc1ccc(O)cc1)NC(=N)N)C(=O)N[C@@H](Cc1ccccc1)C(=O)N(C)CCC(=O)O [Example 32, H2NC(NH)-Tyr-D-IEPR-Phe-MeβAla-OH·diacetate] | 66.61% | 52.72%
